# Results from patent publication US20240350456A1, “COMPOSITIONS AND METHODS FOR DIAGNOSING AND TREATING INFLAMMATORY CONDITIONS” (RUTGERS, THE STATE UNIVERSITY OF NEW JERSEY, priority 2023, published 2024).
# “Also recorded” adds a separate entry of the source.
# Assays:
# [1] = test system: polarized human Caco-2-BBE cells; assay: Nitric oxide production in polarized Caco-2-BBE cells; type: cell-based; conditions: 24 h exposure, 5% LGG supernatant or single metabolites
# Procedure: Lastly, NOS2 activity was analyzed in cells treated with an LGG supernatant (orange bar, FIG. 15).
# [2] = test system: ZO-1 (Tjp1) and Ocln; assay: Intestinal organoids treated with LPS and metabolites: tight junction (TJ) expression, RT-qPCR and immunostaining; type: cell-based, mouse
# Procedure: (§1) Intestinal organoids were isolated as previously described (Das et al., 2015; Pearce et al., 2018). Briefly, crypts were isolated from small intestine of conventional house C57BL/6 male mice (Taconic Laboratories, Hudson, NY) by shaking in isolation buffer (2 mM EDTA in PBS), then, crypts were harvested, processed, and suspended in crypt culture medium (CCM), which consisted of advanced DMEM/F12 (Life Technologies, Carlsbad, CA) supplemented with serum-free B27 (1:50; Life Technologies), N2 (1:100; Life Technologies), N-acetylcysteine (1 mM; Sigma-Aldrich, St. Louis, MO), recombinant murine epithelial growth factor (EGF, 50 ng/ml; Peprotech, Rocky Hill, NJ), Noggin (100 ng/ml; Peprotech), R-Spondin (500 ng/ml; Peprotech), Glutamax-I supplement (1:100; Life Technologies), penicillin/streptomycin (500 μg/ml; Life Technologies), and HEPES ([…]; Life Technologies). Crypts were resuspended in 70% Matrigel (density ˜450 crypts per dome, 2 domes per well in 24-well plate) and allowed to solidify at 37° C. for 20 min. CCM (1.5 mL) was then added to each well. Cultures were incubated in a humidified incubator at 37° C., and CCM was changed daily. Intestinal organoid treatment with LPS and metabolites
# (§2) We had 2 series of metabolite-treated organoid experiments, i.e., 1) organoid from conventional C57BL6 mice and 2) Ocln KO and littermate WT control as a gift from Prof. Jerrold Turner (Harvard University). […] Seeding is designated as day 0. On day 3 of culture, the existing media in the wells were completely removed before adding treatments. LPS (1 μg/mL) with or without metabolites, i.e., IPA (0.1 mM) (Li et al., 2021), IAM (200 μM) (Vyhlidalova et al., 2020), MNA (12 ng/ml) (Liu et al., 2015), CARN (20 mM) (Boldyrev et al., 2013) or ASA (1 μM) (Erez et al., 2011) were each added in CCM at known physiological concentrations, incubated for 48 hours, thereafter, organoid was harvested for RNA extraction, and paraformaldehyde fixation for immunostaining.
# (§3) Total RNA was extracted from the intestinal organoids using a commercially available kit (RNeasy Microkit; Qiagen, MD, Cat. #74004) following manufacturer's instructions. mRNA samples were converted to cDNA using Bio-Rad's iScript Reverse Transcription Supermix for RT-qPCR (Bio-Rad Laboratories, Hercules, CA, Cat. #1708840). cDNA was then used for RT-qPCR (Mx3000P. Stratagene, La Jolla, CA) to analyze several genes using Maxima SYBR Green qPCR Master Mix (Thermo Fisher Scientific, Waltham, MA) and primers (Integrated DNA Technologies, Coralville, IA). Thermal profile for three-step cycling was 10 min at 95° C. for initial denaturation; then 40 cycles of 15 sec at 95° C. for denaturation, 30 sec at 65° C. for annealing, and 30 sec at 75° C. for extension. Primers used are as follows: β-actin (Actb), forward 5′-[…]-3′ (SEQ ID NO: 5), reverse 5′-[…]-3′ (SEQ ID NO: 6); ZO-1 (Tjp1), forward 5′-[…]-3′ (SEQ ID NO: 7), reverse 5′-[…]-3′ (SEQ ID NO: 8), Ocln, forward 5′-[…]-3′ (SEQ ID NO: 9), reverse 5′-[…]-3′ (SEQ ID NO: 10); Lyz1, forward 5′-ATGGCTACCGTGGTGTCAAG-3′ (SEQ ID NO: 11), reverse 5′-CGGTCTCCACGGTTGTAGTT-3′ (SEQ ID NO: 12); Tff3, forward 5′-TAATGCTGTTGGTGGTCCTG-3′ (SEQ ID NO: 13), reverse 5′-CAGCCACGGTTGTTACACTG-3′ (SEQ ID NO: 14). All samples were normalized to β actin expression. Gene expression levels are depicted as fold change relative to the control group.
# (§4) Immunocytochemistry followed earlier work (Pearce et al., 2018). Briefly, organoids were extracted from Matrigel by using cell recovery solution (Corning, Cat. No. 354253), processed then fixed in 4% paraformaldehyde for 15 min and dehydrated with 70% ethanol and kept in 4° C. until embedded in paraffin. On the day of embedding, organoids were gently spun down to a pellet (250 g for 5 min), then the supernatant was removed, the pellet resuspended in agarose and embedded in paraffin. […]
# [3] = test system: mouse intestinal organoids; assay: Organoid permeability assay with 4 kDa FITC-dextran, LPS with or without metabolites; type: cell-based; conditions: ex vivo organoids
# Procedure: as §1, §2
# Permeability assays followed earlier work (Pearce et al., 2018). Briefly, all media were removed and then organoid were incubated with CCM containing 4 kDa FITC-dextran (Sigma-Aldrich, St. Louis, MO, Cat. #46944) at a final concentration of 1.25 µM for 30 minutes at 37° C. and at 5% CO2. […] A fluorescent microscope (Nikon Eclipse TI, NY) at a 10× magnification was used to observe and capture the fluorescence within the lumen of the organoids. Using the same area as the lumen, three different background samples are measured randomly around the lumen. The three background samples measured are averaged and then subtracted from the measured fluorescence of the lumen. […] The quantification of the fluorescence was conducted using the ImageJ 1.53 (NIH, Bethesda, MD).
# [4] = test system: Tff3 and Lyz1 (goblet and Paneth cells); assay: Organoids: goblet and Paneth cell transcripts (Tff3, Lyz1) and cell numbers; type: cell-based, mouse; conditions: enteroids
# Procedure: as §2, §3, §4
# [5] = test system: human-derived Caco-2 cells; assay: In vitro transwell screening in Caco-2 cells, barrier disrupted by Clostridium difficile toxin (TEER and FITC-dextran permeability); type: cell-based; conditions: applied in the basolateral compartment, TOX
# [6] = test system: leaky gut mouse model (DSS colitis); assay: DSS (3%) leaky gut colitis mouse model, metabolites i.p.; type: in vivo; conditions: 3% DSS; i.p. every other day; listed as ASA
# Source text: A moderate amount of DSS (3%) creates a leaky gut model.
# FIG. 23A, Analysis of plasma ovalbumin levels after oral ovalbumin gavage in mice treated with exogenous MNA or PBS. […] Analysis of fecal lipocalin levels in mice treated with PBS or MNA with or without DSS. […] Representative histology sections of mice treated with PBS or MNA with or without DSS. FIG. 23D, quantification of mouse histology sections scored for colitis index.
# FIG. 24A, Analysis of zonula occludens (Tjp1) and occluding (Ocln) mRNA levels after treatment with PBS or MNA with or without DSS. FIG. 24B, Western blot analysis and quantification of Ocln protein levels after treatment with PBS or MNA with or without DSS. FIG. 24C, Quantified levels of occluding in the ileum (top) and colon (bottom) using immunofluorescence antibody staining.
# Administration of DSS induces experimental colitis and disrupts gut barrier in vivo in animal models.
# Exogenous MNA administration was assessed by plasma ovalbumin levels after oral ovalbumin gavage—an accepted method to determine permeability of the gut paracellular pathway. […] (FIG. 23B) Histology sections of mice treated with or without DSS and PBS or MNA were also obtained. […] Sections from several mice were also examined by a blinded observer and scored for colitis index.
# (FIG. 24B) Using immunofluoresce antibody staining, quantified levels of occludin in the ileum and colon were also analyzed.
# [7] = test system: C57BL/6 mice with DSS-induced mild colitis; assay: DSS induced mild colitis treatment with LGG metabolites (2.5% DSS); type: in vivo, mouse; conditions: metabolite i.p. twice
# Procedure: FIG. 13A-13M. IPA requires Ocln to alleviate LPS-induced leaky epithelium. FIG. 13A, experimental design. Organoids were derived from tamoxifen-inducible, intestine-specific Ocln-knockout (KO) mice generated by crossing a floxed Ocln^fl/fl with Villin-CreERT2 mice. FIG. 13B, Representative images and FIG. 13C, quantitative analysis of permeability assay. LPS was added to CCM media (basolateral side) with and without IPA […] and IAM (200 μM) (n=3 mice). *** P<0.001, compared with WT control, †P<0.05 compared with KO-control. FIG. 13D, Representative images of immunofluorescent staining of Ocln in WT control and Ocln KO conventional mice, L=lumen. MNA improves but ASA exacerbates dextran sodium sulfate (DSS)-induced leaky gut. FIG. 13E, experimental design, evaluation in vivo of metabolites (Met). Methylnicotinamide (MNA. […]) and L-argininosuccinate (ASA. 3.6 mg/kg) were administered (i.p.) twice 1-day before and 3 days after DSS treatment p.o. 4 kDa fluorescein isothiocyanate (FITC)-dextran was gavaged 4 h before sacrifice. FIG. 13F, body weight of DSS-treated mice with and without metabolites, FIG. 13G, representative images of Ocln-stained colon sections (green; left panel) and ECad (red; middle). Merged images (yellow; right panel) depict Ocln location in TJ of MNA-treated but not in DSS-only and ASA-treated colon (arrows). Quantitative fluorescent intensity of Ocln (FIG. 13H) and ECad (FIG. 13I) in the TJ, relative to DSS only controls. FIG. 13J, DSS scoring. FIG. 13K, representative H&E images of DSS, DSS+ MNA and DSS+ASA colon sections. FIG. 13L, In vivo permeability as determined by fluorescent intensity of FITC in serum. FIG. 13M, Serum level of interleukin-6.
# DSS induced mild colitis treatment with LGG metabolites. To assess in vivo impact of metabolites on gut barrier function, conventional C57BL/6 mice (8 weeks of age) were administered with 2.5% dextran sodium sulfate (DSS) in drinking water to induce mild colitis. Animals were intraperitoneal injected with either PBS vehicle, 30 mg/kg methylnicotinamide chloride, or 3.6 mg/kg argininosuccinic acid dissolved in sterile PBS at Day-1 and Day 4 of the experiment. Body weight was recorded daily. At Day 7, 4 hours before sacrifice and collection of blood, animals were gavaged with 600 mg/kg with 4 kDa FITC-dextran. Blood was collected in 5% EDTA and subsequently centrifuged at 3000 g for 5 minutes for plasma collection. FITC readings were collected by diluting 25 μl of plasma in 75 μl of PBS and analyzed using a Glomax (Promega, GMMTE9032) with Ex490/Em510-570 filter cube module. Serum concentration of interleukin-6 (Cat. No. Biolegend 431304) was also determined. Ileum and colon sections were collected, fixed in 4% paraformaldehyde, processed for embedding in paraffin wax. Pathohistology of intestine was observed by routine H&E staining.
# [8] = test system: ileal transcriptome; assay: Germ-free mice monocolonized with LGG, trp+ or trp− diet: bulk RNA-sequencing of ileum; type: in vivo, mouse
# Procedure: Gnotobiotic study. After 5 days of acclimatization under GF conditions, two cages of GF mice (n=10) were fed with a trp-free diet and another 2 cages with a trp-sufficient diet. Purified diets were sterilized by double-irradiation (Research Diets, New Brunswick, NJ) then stored in −80° C. Two weeks afterward, five mice from the trp-deficient and five from trp-sufficient were gavaged with LGG and the remaining mice with sterile PBS. Body weight and food intake were recorded weekly. Fecal pellets were collected aseptically one week before, then one and three weeks post inoculation, then stored (−80° C.) for later analysis. Feces were also collected twice a week then analyzed immediately to monitor gnotobiotic status. All mice were sacrificed three weeks post inoculation, then serum, liver, ileum and colon collected.
# For LGG colonization, one cage of GF trp− mice and one cage of GF trp+ were orally gavaged with 200 μl of LGG (10^8 CFU/ml) in sterile PBS (LGG trp− and LGG trp+, respectively) while control GF received 200 μl sterile PBS (PBS trp− and PBS trp+).
# Total RNA was isolated from mouse ileum then purified with RNeasy Plus universal kit (Qiagen, Hilden, Germany) following manufacturer's instructions. […] For global assessment of mouse RNA levels, total RNA was subjected to two rounds of poly(A) selection using oligo (dT) 25 magnetic beads (New England Biolabs [NEB], Ipswich, MA). Illumina-compatible RNA-seq libraries were constructed using the NEBNext Ultra II RNA library prep with sample purification beads (Cat. No. E7775) and NEB Next Multiplex Oligos for Illumina (dual index primers set 1; Cat. No. E7600) according to the manufacturer's instructions. Poly(A) selection and library quality were assessed using TapeStation 2200 (Agilent Technologies, Santa Clara, CA), and libraries were quantified using Qubit 4.0 fluorometer (Thermo Fisher, Waltham, MA). The prepared libraries were sequenced on an Illumina NextSeq 500 instrument (Illumina, San Diego, CA). CLC Genomics Workbench version 20.0.4 (Qiagen, Venlo, Netherlands) was used for RNA-seq analysis. […]
smiles,measurement,setting,value
N=C(N)NCCC[C@H](N)C(=O)O [Arginine],NO production (fluorescence intensity),[1],NO production increases
"NCCC(=O)N[C@@H](Cc1cnc[nH]1)C(=O)O [Carnosine, carnosine]",gene expression of Ocln,"[2]; ex vivo, in the presence of the barrier disruptor",increased gene expression of Ocln
same,TJ expression at the protein and mRNA levels,"[2]; in the presence of LPS (1 μg/mL), 48 hr",increased TJ expression
same,"disruption of the gut barrier, fluorescence microscopy (FIG. 11M)",[3],prevented disruption of the gut barrier
same,goblet and Paneth cell transcripts and cell numbers,[4],reduced goblet and Paneth cell transcripts as well as cell numbers
O=Cc1c[nH]c2ccccc12 [Indole-3-carboxaldehyde],"TEER, indole metabolites",[5],more effective when applied in this compartment than in the luminal
"NC(=NCCC[C@H](N)C(=O)O)N[C@@H](CC(=O)O)C(=O)O [L-arginino-succinate, L-argininosuccinic acid]",TJ expression,"[2]; metabolite alone, 48 hr",significantly reduced TJ expression
same,body weight loss and recovery in DSS leaky gut model,[6],"exacerbated the effects of DSS, and significantly delayed recovery; also recorded: exacerbates weight loss"
same,"disruption of the gut barrier, fluorescence microscopy (FIG. 11M)",[3],disrupted the gut
same,DSS-induced leaky gut (overall),[7],exacerbates
same,E-cad abundance and localization in colonic epithelial cells,[7],appeared dispersed
same,Ocln expression in colonic epithelium,[7],reduction in Ocln expression
same,body weight,[7]; vs DSS alone,greater tendency to lose weight
N[C@@H](Cc1c[nH]c2ccccc12)C(=O)O [Tryptophan],number of ileal transcripts affected by dietary trp,[8]; GF mice,3917
same,number of ileal transcripts affected by dietary trp,[8]; LGG mono-associated mice,5315
same,number of transcripts affected solely by dietary trp with or without LGG,"[8]; mouse, in vivo",1496
NC(=O)NCCC[C@H](N)C(=O)O [citrulline],NO production (fluorescence intensity),[1],NO production increases
